The numbers were not newly measured in patent US9156886B2, “Cyclosporin analogues for preventing or treating hepatitis C infection” (priority 2009, dated 2015), which cites them from elsewhere.

Data set [1] has as its target cyclophilin A (Homo sapiens, UniProt P62937).
For data set [2], the system named is hepatitis C virus. Conditions: published results, Antiviral Research 65(3):A41 (2005).

cyclophilin A, sequence (P62937 whole entry, species assumed): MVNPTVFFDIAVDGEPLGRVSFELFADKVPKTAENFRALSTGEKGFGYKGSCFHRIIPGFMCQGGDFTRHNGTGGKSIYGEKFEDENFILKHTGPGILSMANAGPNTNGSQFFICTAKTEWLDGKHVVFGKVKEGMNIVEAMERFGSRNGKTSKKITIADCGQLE

For the compound `C/C=C/C[C@@H](C)[C@@H](O)[C@H]1C(=O)N[C@@H](CC)C(=O)N(C)[C@H](C)C(=O)N(CC)[C@@H](C(C)C)C(=O)N[C@@H](C(C)C)C(=O)N(C)[C@@H](CC(C)C)C(=O)N[C@@H](C)C(=O)N[C@H](C)C(=O)N(C)[C@@H](CC(C)C)C(=O)N(C)[C@@H](CC(C)C)C(=O)N(C)[C@@H](C(C)C)C(=O)N1C` [DEBIO-025], the “binding affinity for cyclophilin A” value in data set [1] was “potent binding affinity”. Also, the “inhibition of hepatitis C virus replication” value in data set [2] is “potent and selective inhibition”.
